Assay results from BigSolDB 2.1.

OC[C@@H](O)C(O)[C@@H](O)CO (some centres undefined)
solubility (mole fraction)
Conditions	293.15 K	298.15 K	303.15 K	308.15 K	313.15 K	318.15 K	323.15 K
in acetone	0.000202	0.00024	0.000302	0.000399	0.000542	0.000739	0.001
in ethanol	0.00172	0.0024	0.00309	0.00396	0.00521	0.00703	0.0096
